Experimental data reported in the kinase profiling compilation of Christmann-Franck et al. (2016).

Assays:
Assay in all cases: radiometric filter-binding kinase assay, Kinase HotSpot
Settings in all cases: compound 0.5 µM; ATP 10 µM
ABL2 (human) = ABL2 (human) (UniProt P42684)
ACVRL1 (human) = ACVRL1 (human) (UniProt P37023)
AKT3 (human) = AKT3 (human) (UniProt Q9Y243)
BLK (human) = BLK (human) (UniProt P51451)
CAMK1G (human) = CAMK1G (human) (UniProt Q96NX5)
CAMK4 (human) = CAMK4 (human) (UniProt Q16566)
CAMKK1 (human) = CAMKK1 (human) (UniProt Q8N5S9)
CDC42BPB (human) = CDC42BPB (human) (UniProt Q9Y5S2)
CDK1 CCNB1 (human) = CDK1 CCNB1 (human) (UniProt P06493+P14635)
CDK6 CCND3 (human) = CDK6 CCND3 (human) (UniProt P30281+Q00534)
CLK2 (human) = CLK2 (human) (UniProt P49760)
FER (human) = FER (human) (UniProt P16591)
FGFR2 (human) = FGFR2 (human) (UniProt P21802)
FRK (human) = FRK (human) (UniProt P42685)
GRK4 (human) = GRK4 (human) (UniProt P32298)
GRK7 (human) = GRK7 (human) (UniProt Q8WTQ7)
HIPK2 (human) = HIPK2 (human) (UniProt Q9H2X6)
HIPK4 (human) = HIPK4 (human) (UniProt Q8NE63)
IKBKB (human) = IKBKB (human) (UniProt O14920)
LCK (human) = LCK (human) (UniProt P06239)
LRRK2 (human) = LRRK2 (human) (UniProt Q5S007)
MAP2K1 (human) = MAP2K1 (human) (UniProt Q02750)
MAP3K14 (human) = MAP3K14 (human) (UniProt Q99558)
MAP3K9 (human) = MAP3K9 (human) (UniProt P80192)
MAPKAPK5 (human) = MAPKAPK5 (human) (UniProt Q8IW41)
MST4 (human) = MST4 (human) (UniProt Q9P289)
NEK2 (human) = NEK2 (human) (UniProt P51955)
NEK7 (human) = NEK7 (human) (UniProt Q8TDX7)
PAK1 (human) = PAK1 (human) (UniProt Q13153)
PDGFRB (human) = PDGFRB (human) (UniProt P09619)
PRKD1 (human) = PRKD1 (human) (UniProt Q15139)
RPS6KB1 (human) = RPS6KB1 (human) (UniProt P23443)
RPS6KB2 (human) = RPS6KB2 (human) (UniProt Q9UBS0)
SRPK3 (human) = SRPK3 (human) (UniProt Q9UPE1)
STK11 (human) = STK11 (human) (UniProt Q15831)
STK16 (human) = STK16 (human) (UniProt O75716)
STK3 (human) = STK3 (human) (UniProt Q13188)
TAOK2 (human) = TAOK2 (human) (UniProt Q9UL54)
TAOK3 (human) = TAOK3 (human) (UniProt Q9H2K8)
TEK (human) = TEK (human) (UniProt Q02763)
ULK2 (human) = ULK2 (human) (UniProt Q8IYT8)
TYRO3 (human) = TYRO3 (human) (UniProt Q06418)

ACVRL1 (human), sequence (P37023 whole entry, looked up): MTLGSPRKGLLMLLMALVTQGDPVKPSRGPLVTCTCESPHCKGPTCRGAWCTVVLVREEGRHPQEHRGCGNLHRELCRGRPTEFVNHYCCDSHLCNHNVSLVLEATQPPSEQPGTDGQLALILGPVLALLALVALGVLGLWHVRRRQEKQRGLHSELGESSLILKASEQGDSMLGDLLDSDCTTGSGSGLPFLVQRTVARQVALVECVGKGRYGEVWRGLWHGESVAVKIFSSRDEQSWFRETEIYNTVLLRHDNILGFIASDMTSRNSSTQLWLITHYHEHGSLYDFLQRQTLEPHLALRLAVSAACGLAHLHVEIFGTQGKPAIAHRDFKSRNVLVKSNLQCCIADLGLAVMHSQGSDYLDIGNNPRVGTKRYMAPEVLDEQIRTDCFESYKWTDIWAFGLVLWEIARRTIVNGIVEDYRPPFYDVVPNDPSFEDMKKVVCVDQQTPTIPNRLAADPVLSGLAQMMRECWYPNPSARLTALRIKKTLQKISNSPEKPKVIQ
RPS6KB1 (human), sequence (P23443 whole entry, looked up): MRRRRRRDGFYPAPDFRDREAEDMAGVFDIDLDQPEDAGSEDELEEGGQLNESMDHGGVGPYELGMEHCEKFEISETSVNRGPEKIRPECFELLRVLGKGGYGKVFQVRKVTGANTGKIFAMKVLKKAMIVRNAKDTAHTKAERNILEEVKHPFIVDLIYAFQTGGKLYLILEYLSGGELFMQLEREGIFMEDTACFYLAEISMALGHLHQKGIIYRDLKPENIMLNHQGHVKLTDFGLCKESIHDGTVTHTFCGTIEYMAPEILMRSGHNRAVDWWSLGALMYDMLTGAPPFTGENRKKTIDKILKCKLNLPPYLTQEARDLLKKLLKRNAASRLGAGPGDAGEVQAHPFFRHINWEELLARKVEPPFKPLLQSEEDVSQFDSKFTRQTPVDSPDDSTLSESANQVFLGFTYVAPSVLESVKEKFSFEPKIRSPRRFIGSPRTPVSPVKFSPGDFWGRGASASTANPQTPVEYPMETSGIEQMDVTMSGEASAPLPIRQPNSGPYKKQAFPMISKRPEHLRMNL
FGFR2 (human), sequence (P21802 whole entry, looked up): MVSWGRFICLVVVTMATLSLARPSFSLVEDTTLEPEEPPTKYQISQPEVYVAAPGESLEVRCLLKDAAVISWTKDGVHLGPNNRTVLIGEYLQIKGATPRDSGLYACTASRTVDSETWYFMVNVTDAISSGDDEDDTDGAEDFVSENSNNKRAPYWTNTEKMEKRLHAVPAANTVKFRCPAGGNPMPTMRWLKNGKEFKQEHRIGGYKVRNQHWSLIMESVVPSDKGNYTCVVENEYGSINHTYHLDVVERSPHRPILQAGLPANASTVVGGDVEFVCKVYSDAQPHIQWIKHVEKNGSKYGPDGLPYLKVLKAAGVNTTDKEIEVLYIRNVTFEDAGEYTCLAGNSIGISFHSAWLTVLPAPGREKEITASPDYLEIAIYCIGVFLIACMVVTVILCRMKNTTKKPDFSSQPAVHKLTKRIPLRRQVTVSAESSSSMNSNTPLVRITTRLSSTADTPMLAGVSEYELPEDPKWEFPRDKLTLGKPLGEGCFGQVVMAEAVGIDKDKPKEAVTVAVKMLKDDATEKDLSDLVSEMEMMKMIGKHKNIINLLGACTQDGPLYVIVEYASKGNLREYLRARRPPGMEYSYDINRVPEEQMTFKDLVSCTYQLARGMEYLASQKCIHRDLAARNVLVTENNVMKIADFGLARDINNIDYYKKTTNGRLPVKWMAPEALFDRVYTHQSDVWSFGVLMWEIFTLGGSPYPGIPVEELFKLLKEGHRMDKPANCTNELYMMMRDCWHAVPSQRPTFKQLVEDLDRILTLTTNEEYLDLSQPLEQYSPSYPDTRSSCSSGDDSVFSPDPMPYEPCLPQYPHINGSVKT
PAK1 (human), sequence (Q13153 whole entry, looked up): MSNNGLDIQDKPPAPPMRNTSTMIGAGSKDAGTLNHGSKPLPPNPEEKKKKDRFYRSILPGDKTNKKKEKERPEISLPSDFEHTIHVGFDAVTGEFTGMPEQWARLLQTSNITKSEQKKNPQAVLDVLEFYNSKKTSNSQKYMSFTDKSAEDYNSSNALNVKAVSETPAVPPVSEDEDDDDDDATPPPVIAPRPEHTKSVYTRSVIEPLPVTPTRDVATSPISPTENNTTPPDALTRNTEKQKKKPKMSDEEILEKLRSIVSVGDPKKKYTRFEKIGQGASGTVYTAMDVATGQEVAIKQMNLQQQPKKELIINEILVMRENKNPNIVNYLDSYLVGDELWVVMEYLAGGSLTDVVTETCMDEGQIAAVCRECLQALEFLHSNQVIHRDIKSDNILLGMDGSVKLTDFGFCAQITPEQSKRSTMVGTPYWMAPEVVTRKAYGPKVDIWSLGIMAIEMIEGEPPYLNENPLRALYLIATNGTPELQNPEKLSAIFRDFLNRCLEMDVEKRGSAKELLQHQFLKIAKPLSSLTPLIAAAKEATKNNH
MST4 (human), sequence (Q9P289 whole entry, looked up): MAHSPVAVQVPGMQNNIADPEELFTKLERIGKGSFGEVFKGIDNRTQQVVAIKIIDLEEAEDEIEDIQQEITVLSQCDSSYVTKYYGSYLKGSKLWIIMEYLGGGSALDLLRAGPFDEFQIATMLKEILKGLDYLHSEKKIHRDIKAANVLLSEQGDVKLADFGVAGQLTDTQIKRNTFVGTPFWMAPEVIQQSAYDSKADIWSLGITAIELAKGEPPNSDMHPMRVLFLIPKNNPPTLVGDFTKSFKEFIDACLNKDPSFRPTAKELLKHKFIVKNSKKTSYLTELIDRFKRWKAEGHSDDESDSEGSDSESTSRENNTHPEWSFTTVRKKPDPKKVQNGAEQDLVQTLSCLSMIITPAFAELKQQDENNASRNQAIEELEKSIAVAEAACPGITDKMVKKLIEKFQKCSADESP
STK11 (human), sequence (Q15831 whole entry, looked up): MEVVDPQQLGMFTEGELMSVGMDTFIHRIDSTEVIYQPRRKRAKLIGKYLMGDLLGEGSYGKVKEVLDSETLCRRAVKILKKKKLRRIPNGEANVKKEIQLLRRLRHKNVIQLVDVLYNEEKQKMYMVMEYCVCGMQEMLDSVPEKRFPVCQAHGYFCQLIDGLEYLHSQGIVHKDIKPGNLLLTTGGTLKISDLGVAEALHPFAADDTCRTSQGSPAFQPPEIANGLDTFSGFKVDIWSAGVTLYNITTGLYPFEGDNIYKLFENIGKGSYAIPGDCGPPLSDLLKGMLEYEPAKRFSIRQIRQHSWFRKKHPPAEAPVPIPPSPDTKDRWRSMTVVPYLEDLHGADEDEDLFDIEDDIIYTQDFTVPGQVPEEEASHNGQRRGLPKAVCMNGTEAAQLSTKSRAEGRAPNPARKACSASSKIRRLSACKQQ
IKBKB (human), sequence (O14920 whole entry, looked up): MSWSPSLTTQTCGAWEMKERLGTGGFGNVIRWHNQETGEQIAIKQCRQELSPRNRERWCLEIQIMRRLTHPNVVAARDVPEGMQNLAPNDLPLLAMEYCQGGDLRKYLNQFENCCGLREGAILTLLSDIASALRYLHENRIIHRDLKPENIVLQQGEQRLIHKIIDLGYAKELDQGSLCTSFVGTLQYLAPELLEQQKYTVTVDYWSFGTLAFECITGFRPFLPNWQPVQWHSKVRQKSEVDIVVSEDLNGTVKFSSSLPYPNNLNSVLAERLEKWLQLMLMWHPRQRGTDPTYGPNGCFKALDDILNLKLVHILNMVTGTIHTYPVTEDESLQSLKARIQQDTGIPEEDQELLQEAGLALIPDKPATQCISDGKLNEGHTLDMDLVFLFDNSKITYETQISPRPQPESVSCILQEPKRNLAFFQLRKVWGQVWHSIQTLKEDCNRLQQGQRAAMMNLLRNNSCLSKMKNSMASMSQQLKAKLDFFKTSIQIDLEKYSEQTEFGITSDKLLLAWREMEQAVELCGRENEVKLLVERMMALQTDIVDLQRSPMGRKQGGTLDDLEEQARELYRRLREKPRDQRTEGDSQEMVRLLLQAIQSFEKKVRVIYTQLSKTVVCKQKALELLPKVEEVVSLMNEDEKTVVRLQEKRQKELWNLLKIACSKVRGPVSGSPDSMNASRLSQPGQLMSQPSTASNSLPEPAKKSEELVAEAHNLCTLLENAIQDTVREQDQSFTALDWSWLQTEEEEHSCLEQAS
SRPK3 (human), sequence (Q9UPE1 whole entry, looked up): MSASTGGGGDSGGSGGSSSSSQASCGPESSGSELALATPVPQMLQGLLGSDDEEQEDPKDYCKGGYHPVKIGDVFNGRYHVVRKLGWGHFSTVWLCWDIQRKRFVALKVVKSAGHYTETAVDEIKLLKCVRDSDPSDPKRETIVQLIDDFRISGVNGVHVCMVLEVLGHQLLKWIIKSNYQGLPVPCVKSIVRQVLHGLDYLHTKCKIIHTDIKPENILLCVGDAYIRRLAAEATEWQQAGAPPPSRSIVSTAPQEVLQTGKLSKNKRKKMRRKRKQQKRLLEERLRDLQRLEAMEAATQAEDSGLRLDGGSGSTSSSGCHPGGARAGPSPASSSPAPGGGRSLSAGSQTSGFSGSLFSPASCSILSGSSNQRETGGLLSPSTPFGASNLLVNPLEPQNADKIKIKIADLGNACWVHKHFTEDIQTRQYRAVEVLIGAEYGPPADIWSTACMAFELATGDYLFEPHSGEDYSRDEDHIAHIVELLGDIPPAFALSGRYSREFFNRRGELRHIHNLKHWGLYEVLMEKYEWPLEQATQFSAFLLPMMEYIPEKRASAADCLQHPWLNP
STK16 (human), sequence (O75716 whole entry, looked up): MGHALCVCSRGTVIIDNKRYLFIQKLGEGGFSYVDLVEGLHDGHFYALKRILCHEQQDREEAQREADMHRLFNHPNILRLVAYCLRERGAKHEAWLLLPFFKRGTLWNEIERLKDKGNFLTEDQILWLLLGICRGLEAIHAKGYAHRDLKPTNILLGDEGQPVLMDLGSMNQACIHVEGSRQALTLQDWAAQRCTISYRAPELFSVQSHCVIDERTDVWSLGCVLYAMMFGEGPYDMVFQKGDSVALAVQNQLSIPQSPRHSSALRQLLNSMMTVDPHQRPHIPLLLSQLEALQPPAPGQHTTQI

## NC(=O)c1cccc(-c2cc(Nc3ccc(OC(F)(F)F)cc3)ncn2)c1
ABL2 (human)
  residual activity: 106%
ACVRL1 (human)
  residual activity: 99.2%
AKT3 (human)
  residual activity: 93.5%
BLK (human)
  residual activity: 103%
CAMK1G (human)
  residual activity: 98.1%
CAMK4 (human)
  residual activity: 90.5%
CAMKK1 (human)
  residual activity: 103%
CDC42BPB (human)
  residual activity: 93.2%
CDK1 CCNB1 (human)
  residual activity: 92.5%
CDK6 CCND3 (human)
  residual activity: 96.2%
CLK2 (human)
  residual activity: 93.1%
FER (human)
  residual activity: 105%
FGFR2 (human)
  residual activity: 95.9%
FRK (human)
  residual activity: 95.5%
GRK4 (human)
  residual activity: 94.8%
GRK7 (human)
  residual activity: 97.1%
HIPK2 (human)
  residual activity: 102%
HIPK4 (human)
  residual activity: 101%
IKBKB (human)
  residual activity: 98.6%
LCK (human)
  residual activity: 93.3%
LRRK2 (human)
  residual activity: 108%
MAP2K1 (human)
  residual activity: 95.5%
MAP3K14 (human)
  residual activity: 103%
MAP3K9 (human)
  residual activity: 95.7%
MAPKAPK5 (human)
  residual activity: 94.3%
MST4 (human)
  residual activity: 94.7%
NEK2 (human)
  residual activity: 95.6%
NEK7 (human)
  residual activity: 96.3%
PAK1 (human)
  residual activity: 93.3%
PDGFRB (human)
  residual activity: 94.8%
PRKD1 (human)
  residual activity: 99.5%
RPS6KB1 (human)
  residual activity: 109%
RPS6KB2 (human)
  residual activity: 102%
SRPK3 (human)
  residual activity: 94.3%
STK11 (human)
  residual activity: 97.2%
STK16 (human)
  residual activity: 81.8%
STK3 (human)
  residual activity: 93.6%
TAOK2 (human)
  residual activity: 91%
TAOK3 (human)
  residual activity: 107%
TEK (human)
  residual activity: 94.2%
ULK2 (human)
  residual activity: 103%

## COc1ccc2c(c1)/C(=C/c1cnc[nH]1)C(O)=N2
ABL2 (human)
  residual activity: 90.6%
ACVRL1 (human)
  residual activity: 98.7%
AKT3 (human)
  residual activity: 101%
BLK (human)
  residual activity: 90.3%
CAMK1G (human)
  residual activity: 95.6%
CAMK4 (human)
  residual activity: 97.4%
CAMKK1 (human)
  residual activity: 91.3%
CDC42BPB (human)
  residual activity: 104%
CDK1 CCNB1 (human)
  residual activity: 35.9%
CDK6 CCND3 (human)
  residual activity: 28%
CLK2 (human)
  residual activity: 80.6%
FER (human)
  residual activity: 88.4%
FGFR2 (human)
  residual activity: 84%
FRK (human)
  residual activity: 96.4%
GRK4 (human)
  residual activity: 93.6%
GRK7 (human)
  residual activity: 99.7%
HIPK2 (human)
  residual activity: 100%
HIPK4 (human)
  residual activity: 90.8%
IKBKB (human)
  residual activity: 94.9%
LCK (human)
  residual activity: 92%
LRRK2 (human)
  residual activity: 27.9%
MAP2K1 (human)
  residual activity: 94.8%
MAP3K14 (human)
  residual activity: 96.9%
MAP3K9 (human)
  residual activity: 58%
MAPKAPK5 (human)
  residual activity: 95.2%
MST4 (human)
  residual activity: 88.5%
PAK1 (human)
  residual activity: 97.8%
PRKD1 (human)
  residual activity: 47.9%
RPS6KB1 (human)
  residual activity: 98.2%
RPS6KB2 (human)
  residual activity: 98.7%
SRPK3 (human)
  residual activity: 96.2%
STK11 (human)
  residual activity: 51.7%
STK16 (human)
  residual activity: 76.2%
STK3 (human)
  residual activity: 12.2%
TAOK2 (human)
  residual activity: 81.8%
TAOK3 (human)
  residual activity: 44%
TEK (human)
  residual activity: 98.4%
TYRO3 (human)
  residual activity: 99.2%
ULK2 (human)
  residual activity: 97.7%

## O=C1c2ccccc2-c2nc3nnnn3nc21
ABL2 (human)
  residual activity: 89.7%
ACVRL1 (human)
  residual activity: 105%
AKT3 (human)
  residual activity: 81.2%
BLK (human)
  residual activity: 109%
CAMK1G (human)
  residual activity: 28.5%
CAMK4 (human)
  residual activity: 85.4%
CAMKK1 (human)
  residual activity: 74.9%
CDC42BPB (human)
  residual activity: 82.6%
CDK1 CCNB1 (human)
  residual activity: 48%
CDK6 CCND3 (human)
  residual activity: 9.93%
CLK2 (human)
  residual activity: 92.1%
FER (human)
  residual activity: 89.1%
FGFR2 (human)
  residual activity: 59.4%
FRK (human)
  residual activity: 33.9%
GRK4 (human)
  residual activity: 68.4%
GRK7 (human)
  residual activity: 78.1%
HIPK2 (human)
  residual activity: 107%
HIPK4 (human)
  residual activity: 97.9%
IKBKB (human)
  residual activity: 73.4%
LCK (human)
  residual activity: 70.5%
LRRK2 (human)
  residual activity: 85.6%
MAP2K1 (human)
  residual activity: 88.7%
MAP3K14 (human)
  residual activity: 124%
MAP3K9 (human)
  residual activity: 63.3%
MAPKAPK5 (human)
  residual activity: 66.9%
MST4 (human)
  residual activity: 91.8%
NEK2 (human)
  residual activity: 77.7%
NEK7 (human)
  residual activity: 83.6%
PAK1 (human)
  residual activity: 96.1%
PDGFRB (human)
  residual activity: 11.3%
PRKD1 (human)
  residual activity: 86.5%
RPS6KB1 (human)
  residual activity: 85.8%
RPS6KB2 (human)
  residual activity: 86.3%
SRPK3 (human)
  residual activity: 89.4%
STK11 (human)
  residual activity: 99.1%
STK16 (human)
  residual activity: 80.5%
TAOK2 (human)
  residual activity: 91.9%
TAOK3 (human)
  residual activity: 90.8%
TEK (human)
  residual activity: 4.27%
TYRO3 (human)
  residual activity: 33.3%
ULK2 (human)
  residual activity: 105%
